One compound from US20040146474A1, “Method for softening lines and relaxing the skin with adenosine and adenosine analogues” (L'OREAL, priority 2002, published 2004) can be followed below.

This experiment concerns equivalent dermis model constituted by a matrix of collagen seeded with normal human fibroblasts. Put plainly: Dermo-relaxant effect: spontaneous contraction of equivalent dermis (collagen matrix seeded with fibroblasts). The format is cell-based. The following applies: adenosine 0.01%. From the text: The principle of this test is to study the relaxing effect of adenosine on an equivalent dermis model constituted by a matrix of collagen seeded with normal human fibroblasts.
These conditions were intended to imitate in vitro the dermal contractile phenomena which occur during facial expressions. Under these conditions, cells spontaneously express tensile forces which induce retraction of the collagen gel. […] Measuring that surface area allows the relaxation effects of substances that have been brought into contact with the equivalent dermis to be determined.
Two series of 3 attached equivalent dermises containing normal human fibroblasts were prepared: a control series with no treatment, and a series treated with adenosine (0.01%). The experiment was carried out three times.
The skin equivalents were prepared as described by Asselineau et al, Exp. Cell. Res., 1985, 159, 536-539; Models in Dermatology, 1987, vol 3, pp 1-7, in the following proportions:
The treated equivalent dermis differed from the control equivalent dermis in that 0.01% of adenosine had been added.
The collagen used was type I collagen (commercial solution), but it was also possible to use type III or IV collagen. It was extracted from rat tails or calf skin by acid hydrolysis and stored in an acidic medium at +4° C.; it polymerizes naturally by heating to 37° C. and by reducing the acidity. The collagen had been dialyzed against successive baths of water+acetic acid.
The following protocol was employed: the following were introduced into a sterile tube: 1.76×MEM medium in the presence of additives (glutamine 1%, non essential amino acids 1%, sodium pyruvate 1%, fungizone 1% and penicillin/streptomycin 1%), foetal calf serum, 0.1 N sodium hydroxide NaOH. Fibroblasts isolated from human skin explants were then added in a concentration of 1.4×10^5 cells per ml of culture medium.
A 1/1000 vol/vol mixture of collagen in acetic acid was then slowly added by pouring it down the tube wall so that the appearance of a whitish cloud was observed.
The ensemble was then carefully mixed and distributed into the wells of a 12-well culture plate (Costar, reference 3512) in an amount of 0.5 ml of mixture per cm^2. The culture plate was placed in an incubator at 37° C. with 5% CO2.
Once formed after polymerizing the collagen, the equivalent dermises were left adhering to the culture support for 3 days then detached from the support so that contraction could commence. […]
To this end, a digital image was acquired for each treated or untreated equivalent dermis using a camera (CCD Camera—Iris Sony DXC—107P) and the surface area was then calculated for each image using an image analysis system (Zeiss Axiovision 3.0). […]

Regarding `Nc1ncnc2c1ncn2[C@@H]1O[C@H](CO)[C@@H](O)[C@H]1O` [Adenosine], the “relaxing effect on equivalent dermis” value (conclusion in words) is recorded as “causes less contraction in an equivalent dermis”. The “reduction of contraction percentage compared with the control” value by setting is: (eight hours after detachment from support) 10.5%; (four hours after detachment from support) 6.4%; (twenty-four hours after detachment from support) 12.7%.
